{"source": "patent US11248024B2", "about": "“Noxa-derived, cell death-inducing peptide eMTD” (INDUSTRY-ACADEMIC COOPERATION FOUNDATION, CHOSUN UNIVERSITY, priority 2019, dated 2022)", "key": {"HeLa": {"test_system": "HeLa", "experiment": "MTS assay, relative cell viability, HeLa", "assay_type": "cell-based, human", "conditions": "for Viability (%): one hour treatment, Table 3", "description": "Individual cell lines (HeLa, CT26, and B16F10) were purchased from the Korean Cell Line Bank. Dulbecco's modified Eagle's medium (DMEM), trypsin-EDTA, fetal bovine serum (FBS), and Hank's balanced salt solution (HBSS) were products from Gibco (Thermo Fisher).\nEach of the cell lines was cultured in DMEM supplemented with 10% FBS in an incubator maintained at 37° C. and 5% 002.\nFor use in assaying the peptides eMTD (SEQ ID NO: 1) and eMTDΔ4 (SEQ ID NO: 2) synthesized in Example 1 for activity of inducing cell death, the cell line HeLa was grown to about 90% confluency in 96-well plates. The cells were washed once with HBSS buffer before treatment with the peptides of the present disclosure eMTD (SEQ ID NO: 1) and eMTDΔ4 (SEQ ID NO: 2) at concentrations of 0, 20, and 40 for one hour. Thereafter, the cells were incubated with an MTS assay agent (Promega) for one hour, followed by reading absorbance to calculate relative viability of cells.\nExamination was made to see whether the peptide has the activity of inducing cell death in other cancer cell lines. In this regard, the cancer cell lines HeLa, CT26, and B16F10 were treated with eMTDΔ4 (SEQ ID NO: 2) at concentrations of 0, 20, and 40 μM."}, "[1]": {"test_system": "mitochondria isolated from livers of BalB/C mice", "experiment": "Mitochondrial swelling, absorbance at 540 nm / TEM", "assay_type": "biochemical", "conditions": "peptides 25 μM, Ca2+ 200 μM, CsA 20 μM", "description": "First, livers excised from 6-week-old BalB/C mice were immersed in buffer (250 mM mannitol, […], 5 mM HEPES, pH 7.4, 0.1 mM PMSF and 4 rotenone) and completely homogenized using a Teflon Potter-Elvehjem grinder (Sigma). The ground liver was centrifuged at 1000×g for 10 min at 4° C. and the supernatants were centrifuged at 10,000×g for 10 min at 4° C. The pellets thus obtained were suspended in a regeneration buffer (250 mM sucrose, 10 mM HEPES, pH 7.4, 5 mM sodium succinate, 2 mM potassium phosphate, 0.1 mM PMSF, 25 μM EGTA, and 4 rotenone).\nThe mitochondria thus obtained were treated with 25 μM of eMTD (SEQ ID NO: 1) or eMTDΔ4 (SEQ ID NO: 2), followed by reading absorbance at 540 nm to determine mitochondrial swelling."}, "[2]": {"experiment": "Two-step assay, damage on lipid membrane of liposomes (TbCl3/DPA fluorescence)", "assay_type": "biochemical", "conditions": "for Relative Fluorescence Intensity: liposomes, excitation 276 nm, read at 490 nm", "description": "In brief, DOPS, DOPE, and DOPC (Avanti Polar Lipids) were dissolved at the ratio of 2:4:3 in chloroform, followed by vaporization. The residue was again dissolved at the concentration of 2 mg/mL in TbCl3 buffer (15 mM TbCl3, 50 mM sodium citrate, 20 mM HEPES, 150 mM NaCl, pH 7.4). The lipid mixture was extruded by Mini extruder (Avanti Polar Lipids) with a 400 nm to prepare liposomes which were washed with washing buffer (150 mM NaCl, 20 mM HEPES, pH 7.4) and then resuspended in an assay buffer (50 DPA, […], 20 mM HEPES, pH 7.4). The suspension was plated into 96-well plates and treated with 0, 10, or 25 μM of eMTD (SEQ ID NO: 1) or eMTDΔ4 (SEQ ID NO: 2). After stimulation with 276 nm laser, fluorescence was read at 490 nm."}, "HeLa cells [3]": {"test_system": "HeLa cells", "experiment": "Intracellular localization of FAM-labelled peptide, confocal images (TOM20, DAPI)", "assay_type": "cell-based, human", "conditions": "5 and 10 min incubation, fixed", "description": "In order to investigate the source that allowed the intracellular calcium influx observed in Example 4, examination was made of the site at which the peptide eMTDΔ4 (SEQ ID NO: 2) acts. In this regard, the fluorescent tracer fluorescein was labeled to the C-terminal of the peptide eMTDΔ4 (SEQ ID NO: 2) (eMTDΔ4 (SEQ ID NO: 2)-FAM). Then, HeLa cells grown on Lab-Tek chamber glass were incubated with eMTDΔ4 (SEQ ID NO: 2)-FAM for 5 and 10 min before fixation with 1% paraformaldehyde.\nMitochondria were visualized using an antibody to TOM20, which localizes to the outer membrane of the mitochondrion because MTD (SEQ ID NO: 3) is known to migrate to mitochondria, while nuclei were visualized using DAPI."}, "HeLa cells [4]": {"test_system": "HeLa cells", "experiment": "Time-lapse confocal microscopy of peptide entry, Mito-DsRed2 transfected cells", "assay_type": "cell-based, human", "conditions": "images every five seconds for 10 min", "description": "In order to investigate the temporal order and cause relation between the introduction of eMTDΔ4 (SEQ ID NO: 2) and the damage of mitochondrial membrane and cell membrane, mitochondria were visualized by transfecting Mito-DsRed2 into HeLa cells one day before the experiment. Thereafter, eMTDΔ4 (SEQ ID NO: 2)-FAM was applied to the HeLa cells images of which were then taken every five seconds for 10 min under a confocal microscope."}}, "note": "Ends that are not written are not given here. FAM = fluorescein"}
{"compound": "MPGKKARKNAQPSPARAPAELEVECATQLRRFGDKLNFRQKLLNLISKLFCSGT (cysteines drawn unpaired) [fl-Noxa, reference compound]", "values": [{"measurement": "Viability (%)", "setting": "HeLa; 20 μM", "result": 101, "unit": "%"}, {"measurement": "Viability (%)", "setting": "HeLa; 40 μM", "result": 106, "unit": "%"}]}
{"compound": "KLNFRQKLLNLISKLFCSGT [eMTD]", "values": [{"measurement": "Viability (%)", "setting": "HeLa; 20 μM", "result": 61, "unit": "%"}, {"measurement": "Viability (%)", "setting": "HeLa; 40 μM", "result": 63, "unit": "%"}, {"measurement": "cell death activity (in words)", "setting": "HeLa; FIG. 1 and Table 3", "result": "potent cell death activity"}, {"measurement": "Mitochondrial swelling, relative absorbance at 540 nm", "setting": "[1]; Minute 0", "result": 100, "unit": "%"}, {"measurement": "Mitochondrial swelling, relative absorbance at 540 nm", "setting": "[1]; Minute 10", "result": 86, "unit": "%"}, {"measurement": "Mitochondrial swelling, relative absorbance at 540 nm", "setting": "[1]; Minute 20", "result": 78, "unit": "%"}, {"measurement": "Mitochondrial swelling, relative absorbance at 540 nm", "setting": "[1]; Minute 30", "result": 71, "unit": "%"}, {"measurement": "Mitochondrial swelling, relative absorbance at 540 nm", "setting": "[1]; Minute 40", "result": 68, "unit": "%"}, {"measurement": "Mitochondrial swelling, relative absorbance at 540 nm", "setting": "[1]; Minute 50", "result": 68, "unit": "%"}, {"measurement": "Mitochondrial swelling, relative absorbance at 540 nm", "setting": "[1]; Minute 60", "result": 67, "unit": "%"}, {"measurement": "liposome lipid membrane damage (in words)", "setting": "[2]; FIGS. 10A to 10C and Table 6", "result": "higher fluorescence intensity was detected"}, {"measurement": "Relative Fluorescence Intensity", "setting": "[2]; 10 μM", "result": 27, "unit": "%"}, {"measurement": "Relative Fluorescence Intensity", "setting": "[2]; 25 μM", "result": 55, "unit": "%"}]}
{"compound": "[Ca+2]", "note": "[Ca, reference compound]", "values": [{"measurement": "Mitochondrial swelling, relative absorbance at 540 nm", "setting": "[1]; Minute 0", "result": 100, "unit": "%"}, {"measurement": "Mitochondrial swelling, relative absorbance at 540 nm", "setting": "[1]; Minute 10", "result": 77, "unit": "%"}, {"measurement": "Mitochondrial swelling, relative absorbance at 540 nm", "setting": "[1]; Minute 20", "result": 75, "unit": "%"}, {"measurement": "Mitochondrial swelling, relative absorbance at 540 nm", "setting": "[1]; Minute 30", "result": 73, "unit": "%"}, {"measurement": "Mitochondrial swelling, relative absorbance at 540 nm", "setting": "[1]; Minute 40", "result": 72, "unit": "%"}, {"measurement": "Mitochondrial swelling, relative absorbance at 540 nm", "setting": "[1]; Minute 50", "result": 70, "unit": "%"}, {"measurement": "Mitochondrial swelling, relative absorbance at 540 nm", "setting": "[1]; Minute 60", "result": 70, "unit": "%"}]}
{"compound": "eMTDΔ4-FAM: fluorescent tracer fluorescein labeled to the C-terminal of the peptide eMTDΔ4 (KLNFRQKLLNLISKLF-{FAM})", "values": [{"measurement": "intracellular localization", "setting": "HeLa cells [3]", "result": "consistent with the visualized positions of mitochondria"}, {"measurement": "mitochondrial morphology", "setting": "HeLa cells [3]", "result": "mitochondrial fragmentation was observed"}, {"measurement": "entry of peptide into cells", "setting": "HeLa cells [4]", "result": "diffused into the cytosol through the cell membrane bubbles"}]}
